The molecules below were run against Non-receptor tyrosine-protein kinase TYK2 (Homo sapiens, UniProt P29597).
Sequence of Non-receptor tyrosine-protein kinase TYK2 (P29597 whole entry): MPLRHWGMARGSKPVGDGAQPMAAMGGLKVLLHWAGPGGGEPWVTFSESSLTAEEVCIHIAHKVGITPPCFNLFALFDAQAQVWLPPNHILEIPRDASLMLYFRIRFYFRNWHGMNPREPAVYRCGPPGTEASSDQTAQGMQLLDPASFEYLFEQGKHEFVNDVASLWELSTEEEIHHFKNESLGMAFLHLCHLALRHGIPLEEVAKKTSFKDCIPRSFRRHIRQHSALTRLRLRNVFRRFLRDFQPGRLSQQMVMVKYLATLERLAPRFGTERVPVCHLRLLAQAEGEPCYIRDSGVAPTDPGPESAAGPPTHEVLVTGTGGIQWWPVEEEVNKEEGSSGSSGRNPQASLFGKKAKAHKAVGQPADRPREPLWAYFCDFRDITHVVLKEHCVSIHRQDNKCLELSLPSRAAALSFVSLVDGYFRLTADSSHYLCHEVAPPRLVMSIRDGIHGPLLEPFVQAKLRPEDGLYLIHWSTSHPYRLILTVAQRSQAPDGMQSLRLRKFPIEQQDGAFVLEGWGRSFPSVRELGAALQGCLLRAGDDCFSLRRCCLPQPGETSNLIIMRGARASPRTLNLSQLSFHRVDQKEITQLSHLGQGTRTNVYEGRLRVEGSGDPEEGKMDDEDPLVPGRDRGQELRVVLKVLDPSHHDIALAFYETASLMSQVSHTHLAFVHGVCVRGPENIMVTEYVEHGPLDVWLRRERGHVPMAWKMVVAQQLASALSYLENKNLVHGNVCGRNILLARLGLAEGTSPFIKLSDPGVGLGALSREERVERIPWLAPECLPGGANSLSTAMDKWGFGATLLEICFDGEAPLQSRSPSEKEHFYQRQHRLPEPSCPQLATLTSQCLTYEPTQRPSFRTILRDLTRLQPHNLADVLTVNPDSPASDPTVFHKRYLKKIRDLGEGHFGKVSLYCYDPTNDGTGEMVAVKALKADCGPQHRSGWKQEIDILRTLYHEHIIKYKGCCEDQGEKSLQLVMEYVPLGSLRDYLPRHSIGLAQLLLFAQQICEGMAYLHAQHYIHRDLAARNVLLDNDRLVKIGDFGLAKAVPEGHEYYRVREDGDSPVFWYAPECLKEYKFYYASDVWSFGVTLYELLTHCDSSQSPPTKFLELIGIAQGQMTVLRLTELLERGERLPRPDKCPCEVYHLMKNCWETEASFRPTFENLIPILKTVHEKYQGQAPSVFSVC
Description: Inhibition of TYK2 (unknown origin) using GFP-STAT1 as substrate incubated for 1 hrs by TR-FRET assay

Row | IC50 [µM] | Compound
1 | > 10 | Clc1cccc(CN2CCC(Nc3c(-c4cn[nH]c4)cnc4[nH]ccc34)CC2)c1
2 | > 10 | N#Cc1cccc(CN2CCC(Nc3c(-c4cc[nH]n4)cnc4[nH]ccc34)CC2)c1
3 | > 10 | Clc1ccccc1CN1CCC(Nc2c(-c3cn[nH]c3)cnc3[nH]ccc23)CC1
4 | 0.0013 | N#Cc1ccccc1CN1CCC(Nc2c(-c3cc[nH]n3)cnc3[nH]ccc23)CC1
5 | > 10 | N#Cc1cccc(CN2CCC(Nc3c(-c4cn[nH]c4)cnc4[nH]ccc34)CC2)c1
6 | > 10 | N#Cc1ccc(CN2CCC(Nc3c(-c4cn[nH]c4)cnc4[nH]ccc34)CC2)cc1
7 | 0.504 | COc1cccc(CN2CCC(Nc3c(-c4cc[nH]c4)cnc4[nH]ccc34)CC2)c1

Further lines, the molecule ahead of its results:

Row | Compound | IC50 [µM]
8 | Clc1ccccc1CN1CCC(Nc2c(-c3cc[nH]c3)cnc3[nH]ccc23)CC1 | > 10
9 | Clc1cccc(CN2CCC(Nc3c(-c4cc[nH]n4)cnc4[nH]ccc34)CC2)c1 | > 10
10 | N#Cc1ccc(CN2CCC(Nc3c(-c4cc[nH]c4)cnc4[nH]ccc34)CC2)cc1 | > 10
11 | COc1cccc(CN2CCC(Nc3c(-c4cn[nH]c4)cnc4[nH]ccc34)CC2)c1 | > 10
12 | N#Cc1ccccc1CN1CCC(Nc2c(-c3cc[nH]c3)cnc3[nH]ccc23)CC1 | 4.15
13 | Clc1ccccc1CN1CCC(Nc2c(-c3cc[nH]n3)cnc3[nH]ccc23)CC1 | > 10
14 | N#Cc1ccccc1CN1CCC(Nc2c(-c3cn[nH]c3)cnc3[nH]ccc23)CC1 | 0.0041
15 | Clc1ccc(CN2CCC(Nc3c(-c4cc[nH]n4)cnc4[nH]ccc34)CC2)cc1 | > 10
16 | Clc1cccc(CN2CCC(Nc3c(-c4cc[nH]c4)cnc4[nH]ccc34)CC2)c1 | > 10
17 | Clc1ccc(CN2CCC(Nc3c(-c4cn[nH]c4)cnc4[nH]ccc34)CC2)cc1 | > 10
18 | COc1cccc(CN2CCC(Nc3c(-c4cc[nH]n4)cnc4[nH]ccc34)CC2)c1 | > 10
19 | N#Cc1cccc(CN2CCC(Nc3c(-c4cc[nH]c4)cnc4[nH]ccc34)CC2)c1 | > 10
20 | Clc1ccc(CN2CCC(Nc3c(-c4cc[nH]c4)cnc4[nH]ccc34)CC2)cc1 | > 10
21 | N#Cc1ccc(CN2CCC(Nc3c(-c4cc[nH]n4)cnc4[nH]ccc34)CC2)cc1 | > 10

From ChEMBL document CHEMBL5505972, “Design, synthesis and evaluation of C-5 substituted pyrrolopyridine derivatives as potent Janus Kinase 1 inhibitors with excellent selectivity” (Eur J Med Chem, 2024)
